Measured values: ChEMBL document CHEMBL1132030, “Photoactivatable peptides based on BMS-197525: a potent antagonist of the human thrombin receptor (PAR-1)” (Bioorg Med Chem Lett, 1999)
Where a SMILES comes first, the peptide text is derived from it. [ ]: non-standard residue; d: D form. The star is where a group is joined. Phe(4-guanidino) = N=C(N)Nc1ccc(C[C@H](N)C(=O)O)cc1; Bpa = N[C@@H](Cc1ccc(C(=O)c2ccccc2)cc1)C(=O)O; Phe(4-F) = N[C@@H](Cc1ccc(F)cc1)C(=O)O; NBD = O=[N+]([O-])c1ccc(*)c2nonc12; Orn = NCCC[C@H](N)C(=O)O; X2 = O=C(/C=C/c1ccccc1)*

Target: T1, Proteinase-activated receptor 1 (Homo sapiens, UniProt P25116)
T1 sequence (P25116 whole entry): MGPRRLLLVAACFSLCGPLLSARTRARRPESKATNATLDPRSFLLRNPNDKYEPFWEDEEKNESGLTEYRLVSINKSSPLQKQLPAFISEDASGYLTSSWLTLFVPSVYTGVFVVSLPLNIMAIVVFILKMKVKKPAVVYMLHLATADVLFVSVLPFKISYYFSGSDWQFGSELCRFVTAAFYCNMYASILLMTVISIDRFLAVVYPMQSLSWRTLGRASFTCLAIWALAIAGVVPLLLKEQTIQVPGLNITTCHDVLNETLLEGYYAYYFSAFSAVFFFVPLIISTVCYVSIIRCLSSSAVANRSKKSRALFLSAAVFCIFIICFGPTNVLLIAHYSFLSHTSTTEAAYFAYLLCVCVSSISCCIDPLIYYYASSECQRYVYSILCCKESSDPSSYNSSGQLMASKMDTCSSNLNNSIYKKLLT
Assay: Human Thrombin receptor 1 (PAR-1) antagonistic ability to inhibit SFLLRN-NH2 (2.7 uM)-induced platelet aggregation; Not active at 110 uM concentration; call rule not given here
Type: functional

CC(C)C[C@H](NC(=O)[C@H](Cc1ccc(NC(=N)N)cc1)NC(=O)[C@H](Cc1ccc(F)cc1)NC(=O)/C=C/c1ccccc1)C(=O)N[C@@H](Cc1ccc(C(=O)c2ccccc2)cc1)C(=O)N[C@@H](CCCNc1ccc([N+](=O)[O-])c2nonc12)C(=O)O (X2-[Phe(4-F)][Phe(4-guanidino)]L[Bpa][Orn](NBD)-OH)
IC50: Not Active
